# From article PMC11820896, “New Compounds with Enhanced Biological Activity Through the Strategic Introduction of Silylated Groups into Hydroxystearic Acids” (Molecules, 2025)
# How the values were obtained:
# HT29 = test: MTT assay, HT29 cells; assay type: cell-based, human; details: Homo sapiens, HT-29; MTT; means of four experiments; na = not active; read-out: In vitro cytotoxic activity (IC50), HT29
# Procedure: (§1) The human colorectal adenocarcinoma (Caco-2), human colorectal adenocarcinoma (HT29), normal human intestinal (I407), human cervical cancer (HeLa), human breast cancer (MCF7), human bone osteosarcoma (U2OS), and human acute T-cell leukemia (Jurkat J6) cell lines were purchased from American Type Culture Collection (ATCC, Manassas, VA, USA). Cells were cultured in RPMI 1640 medium (Labtek Eurobio, Milan, Italy), supplemented with 10% FCS (Euroclone, Milano, Italy) and 2 mM L-glutamine (Sigma-Aldrich, Milano, Italy), at 37 °C and in a 5% CO2 atmosphere. The compounds were dissolved in DMSO in a 30–40 mM stock solution. In cell treatments, the final DMSO concentration never exceeded 0.1%.
# (§2) Cells were seeded in a 96-well culture plastic plate (Sarsted, Milan, Italy), at 5 × 10^4 cells/well and, after 24 h, were exposed to increasing concentrations of the different compounds (from 1 nM to 500 nM) dissolved in RPMI 1640 medium. An MTT assay was performed according to Micheletti et al..
# (§3) The absorbance at 570 nm was measured using a multi-well plate reader (Tecan, Männedorf, Switzerland), and data were analyzed by Prism GraphPad 8 software and expressed as IC50 nM.
# HeLa = test: MTT assay, HeLa cells; assay type: cell-based; details: Homo sapiens, means of four experiments, na = not active, read-out: In vitro cytotoxic activity (IC50), HeLa
# Procedure: as §1, §2, §3
# [1] = test system: human tumor cell lines (HT29, MCF-7, HeLa, U2OS, and J6); test: Antiproliferative activity in the series of human tumor cell lines; assay type: cell-based; details: MTT; concentration range of 10–500 nM
# Procedure: as §1, §2, §3
# U2OS = test: MTT assay, U2OS cells; assay type: cell-based; details: Homo sapiens, means of four experiments, na = not active, read-out: In vitro cytotoxic activity (IC50), U2OS
# Procedure: as §1, §2, §3
# [2] = test system: histones H2/H3 and H4 of HT29 cells; parameters: method as in PMID 15716589, PMID 22814230; details: cited from earlier work
# HT29 cells = test system: HT29 cells; parameters: method as in PMID 14715257, PMID 22814230; details: cited from earlier work
# MCF7 = test: MTT assay, MCF7 cells; assay type: cell-based; details: Homo sapiens, means of four experiments, na = not active, read-out: In vitro cytotoxic activity (IC50), MCF7
# Procedure: as §1, §2, §3
# J6 = test: MTT assay, Jurkat J6 cells; assay type: cell-based; details: Homo sapiens, means of four experiments, na = not active, read-out: In vitro cytotoxic activity (IC50), J6
# Procedure: as §1, §2, §3
# [3] = test system: histone deacetylase HDAC1; parameters: method as in PMID 14715257, PMID 15716589, PMID 16702808, PMID 17234448, PMID 22814230; details: cited from earlier work
SMILES,IC50 (HT29) [µM],IC50 (HeLa) [µM],antitumor activity across all cell lines tested [1],IC50 (U2OS) [µM],concentration inducing the same effect on the cell cycle (G0/G1 arrest) (HT29 cells) [µM],other results
"CCCCCCCCC(O[Si](C)(C)C(C)(C)C)C(CCCCCCCC(=O)O)O[Si](C)(C)C(C)(C)C (racemic) [Compound 13, Rac-erythro-9,10-bis((tert-butyldimethylsilyl)oxy)octadecanoic Acid]",0.0253 ± 0.00027,0.1318 ± 0.00021,showed antitumor activity,0.04195 ± 0.00029,–,–
"CCCCCCCCC[C@@H](O)CCCCCCCC(=O)O [(R)-9-HSA, (R)-9-hydroxystearic acid]",–,–,–,–,50,histone acetylation (free acid) [2]: induces hyperacetylation of histone H4
"CCCCCCCCC[C@H](CCCCCCCC(=O)OC)O[Si](C)(C)C(C)(C)C [Compound 3, Methyl (R)-9-((tert-butyldimethylsilyl)oxy)octadecanoate]",0.08476 ± 0.0001,0.1337 ± 0.00032,showed antitumor activity,0.02933 ± 0.00023,–,IC50 (MCF7): 0.134 ± 0.00027 µM; IC50 (J6): 0.1516 ± 0.00031 µM
"CCCCCCCCC(O[Si](C)(C)C(C)(C)C)C(CCCCCCCC(=O)OC)O[Si](C)(C)C(C)(C)C (racemic) [Compound 10, Rac-erythro-methyl 9,10-bis((tert-butyldimethylsilyl)oxy)octadecanoate]",–,–,no activity,–,–,–
"CCCCCCCCCC(O)CCCCCCCC(=O)O (stereo not drawn) [Compound 9-HSA, 9-hydroxystearic acid]",–,–,–,–,100,inhibition of histone deacetylase HDAC1 [3]: selectively inhibits
